Data as given in ChEMBL document CHEMBL1208692, “A specific and direct comparison of the trifluoromethyl and pentafluoro sulfanyl groups on the selective dopamine D(3) antagonist 3-(3-{[4-methyl-5-(4-methyl-1,3-oxazol-5-yl)-4H-1,2,4-triazol-3-yl]thio}propyl)-1-phenyl-3-azabicyclo[3.1.0]hexane template” (Bioorg Med Chem Lett, 2010).
pIC50, pKi: −log10 of the molar value.

Legend:
[1] = target: Cytochrome P450 2C19 (Homo sapiens, UniProt P33261); test: Inhibition of CYP2C19; type: ADME
[2] = target: Cytochrome P450 2C9 (Homo sapiens, UniProt P11712); test: Inhibition of CYP2C9; type: ADME
[3] = target: Cytochrome P450 2D6 (Homo sapiens, UniProt P10635); test: Inhibition of CYP2D6; type: ADME
[4] = target: T1, Cytochrome P450 1A2 (Homo sapiens, UniProt P05177); test: Inhibition of CYP1A2; type: ADME
T1 sequence (P05177 whole entry): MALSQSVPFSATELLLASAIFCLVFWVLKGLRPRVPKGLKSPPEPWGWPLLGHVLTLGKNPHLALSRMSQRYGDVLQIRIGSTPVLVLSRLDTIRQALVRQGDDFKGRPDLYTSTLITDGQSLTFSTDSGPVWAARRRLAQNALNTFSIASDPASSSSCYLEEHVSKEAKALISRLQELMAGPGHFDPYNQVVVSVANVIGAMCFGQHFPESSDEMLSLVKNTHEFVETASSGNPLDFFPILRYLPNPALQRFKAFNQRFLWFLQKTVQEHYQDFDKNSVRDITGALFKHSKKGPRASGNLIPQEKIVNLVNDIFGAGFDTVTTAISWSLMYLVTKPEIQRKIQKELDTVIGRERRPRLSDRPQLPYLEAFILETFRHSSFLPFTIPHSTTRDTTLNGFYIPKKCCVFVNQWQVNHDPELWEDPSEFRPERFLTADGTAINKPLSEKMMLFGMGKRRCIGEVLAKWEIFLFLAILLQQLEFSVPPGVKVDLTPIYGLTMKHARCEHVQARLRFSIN

[5] = target: T2, Cytochrome P450 3A4 (Homo sapiens, UniProt P08684); test: Inhibition of CYP3A4 using 7-benzyloxyquinoline as substrate; type: ADME
[6] = target: T2, Cytochrome P450 3A4; test: Inhibition of CYP3A4 using diethoxyfluorescein as substrate; type: ADME
[7] = target: D(2) dopamine receptor (Homo sapiens, UniProt P14416); test: Antagonist activity at dopamine D2 receptor assessed as inhibition of dopamine-induced [35S]GTPgammaS binding […]; type: functional
[8] = target: D(3) dopamine receptor (Homo sapiens, UniProt P35462); test: Antagonist activity at dopamine D3 receptor assessed as inhibition of dopamine-induced [35S]GTPgammaS binding […]; type: functional
[9] = target: Voltage-gated inwardly rectifying potassium channel KCNH2 (Homo sapiens, UniProt Q12809)
[10] = Blood clearance in rat; type: ADME, organism-based; conditions: whole blood
[11] = Bioavailability in rat; type: ADME, organism-based; conditions: in vivo
[12] = Tmax in rat; type: ADME, organism-based; conditions: in vivo
[13] = Half life in rat; type: ADME, organism-based; conditions: in vivo
[14] = Volume of distribution in rat; type: ADME, organism-based; conditions: in vivo
[15] = Ratio of drug level in brain to blood in rat; type: ADME, tissue-based; conditions: read-out: BBR

Cytochrome P450 2D6, sequence (P10635 whole entry): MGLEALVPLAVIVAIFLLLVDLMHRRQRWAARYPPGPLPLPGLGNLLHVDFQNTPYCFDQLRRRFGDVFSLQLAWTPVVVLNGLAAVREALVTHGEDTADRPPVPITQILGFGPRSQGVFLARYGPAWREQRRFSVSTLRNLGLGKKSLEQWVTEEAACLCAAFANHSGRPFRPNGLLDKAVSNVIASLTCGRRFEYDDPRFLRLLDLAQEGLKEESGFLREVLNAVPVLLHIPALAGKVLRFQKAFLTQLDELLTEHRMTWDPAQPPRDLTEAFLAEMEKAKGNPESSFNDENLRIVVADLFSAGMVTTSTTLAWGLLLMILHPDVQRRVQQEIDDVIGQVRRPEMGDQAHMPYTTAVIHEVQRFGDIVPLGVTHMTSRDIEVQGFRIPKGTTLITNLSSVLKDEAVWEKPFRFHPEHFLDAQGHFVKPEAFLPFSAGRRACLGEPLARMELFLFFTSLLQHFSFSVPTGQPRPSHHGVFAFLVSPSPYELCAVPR
T2 sequence (P08684 whole entry): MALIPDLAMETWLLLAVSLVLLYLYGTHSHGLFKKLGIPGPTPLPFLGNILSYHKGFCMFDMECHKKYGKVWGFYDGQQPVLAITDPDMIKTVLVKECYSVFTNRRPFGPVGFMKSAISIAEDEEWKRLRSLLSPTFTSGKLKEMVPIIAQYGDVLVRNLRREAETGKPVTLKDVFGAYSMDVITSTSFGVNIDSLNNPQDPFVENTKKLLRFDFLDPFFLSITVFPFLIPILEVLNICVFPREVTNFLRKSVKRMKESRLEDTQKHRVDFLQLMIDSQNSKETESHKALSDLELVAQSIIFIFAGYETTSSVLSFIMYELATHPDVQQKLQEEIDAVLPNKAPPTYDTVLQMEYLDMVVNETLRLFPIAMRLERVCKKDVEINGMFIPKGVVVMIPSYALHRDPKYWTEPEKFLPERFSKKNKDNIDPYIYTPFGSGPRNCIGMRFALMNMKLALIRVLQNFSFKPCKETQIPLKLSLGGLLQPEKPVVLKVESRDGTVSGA
D(3) dopamine receptor, sequence (P35462 whole entry): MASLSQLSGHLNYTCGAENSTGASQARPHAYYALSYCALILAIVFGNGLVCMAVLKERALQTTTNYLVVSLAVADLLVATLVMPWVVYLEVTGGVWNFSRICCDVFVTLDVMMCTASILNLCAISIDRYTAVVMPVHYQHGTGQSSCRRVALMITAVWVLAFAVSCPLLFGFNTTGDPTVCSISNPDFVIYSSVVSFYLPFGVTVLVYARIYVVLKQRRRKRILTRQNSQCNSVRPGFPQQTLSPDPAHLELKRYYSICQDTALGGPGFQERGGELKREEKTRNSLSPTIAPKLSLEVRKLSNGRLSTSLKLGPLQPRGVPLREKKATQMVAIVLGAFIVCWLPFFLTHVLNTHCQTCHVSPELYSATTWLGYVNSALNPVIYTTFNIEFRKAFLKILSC
D(2) dopamine receptor, sequence (P14416 whole entry): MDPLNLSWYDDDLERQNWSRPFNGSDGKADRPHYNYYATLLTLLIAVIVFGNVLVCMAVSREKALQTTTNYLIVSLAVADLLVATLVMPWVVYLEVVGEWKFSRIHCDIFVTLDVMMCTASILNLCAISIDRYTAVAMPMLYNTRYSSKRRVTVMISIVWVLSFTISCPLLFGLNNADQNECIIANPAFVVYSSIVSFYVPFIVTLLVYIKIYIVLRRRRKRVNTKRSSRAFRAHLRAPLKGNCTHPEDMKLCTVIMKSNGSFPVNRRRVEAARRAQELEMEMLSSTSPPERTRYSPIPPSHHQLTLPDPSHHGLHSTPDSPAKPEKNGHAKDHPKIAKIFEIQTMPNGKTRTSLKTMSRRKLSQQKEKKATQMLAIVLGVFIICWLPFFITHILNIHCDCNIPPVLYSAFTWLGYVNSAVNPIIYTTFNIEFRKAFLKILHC
Cytochrome P450 2C19, sequence (P33261 whole entry): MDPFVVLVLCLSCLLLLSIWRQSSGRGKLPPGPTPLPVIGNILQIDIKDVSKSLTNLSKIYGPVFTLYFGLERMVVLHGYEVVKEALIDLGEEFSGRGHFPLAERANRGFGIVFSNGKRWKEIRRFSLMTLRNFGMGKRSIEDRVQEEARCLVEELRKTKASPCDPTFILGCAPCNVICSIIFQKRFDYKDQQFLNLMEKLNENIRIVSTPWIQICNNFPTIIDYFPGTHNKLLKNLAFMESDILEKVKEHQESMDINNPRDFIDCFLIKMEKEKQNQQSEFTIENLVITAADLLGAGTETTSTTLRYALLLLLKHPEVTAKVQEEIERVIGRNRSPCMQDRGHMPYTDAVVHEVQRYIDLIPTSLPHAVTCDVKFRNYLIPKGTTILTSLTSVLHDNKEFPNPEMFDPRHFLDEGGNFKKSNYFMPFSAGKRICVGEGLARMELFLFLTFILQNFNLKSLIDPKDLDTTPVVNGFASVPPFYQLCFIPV
Voltage-gated inwardly rectifying potassium channel KCNH2, sequence (Q12809 whole entry): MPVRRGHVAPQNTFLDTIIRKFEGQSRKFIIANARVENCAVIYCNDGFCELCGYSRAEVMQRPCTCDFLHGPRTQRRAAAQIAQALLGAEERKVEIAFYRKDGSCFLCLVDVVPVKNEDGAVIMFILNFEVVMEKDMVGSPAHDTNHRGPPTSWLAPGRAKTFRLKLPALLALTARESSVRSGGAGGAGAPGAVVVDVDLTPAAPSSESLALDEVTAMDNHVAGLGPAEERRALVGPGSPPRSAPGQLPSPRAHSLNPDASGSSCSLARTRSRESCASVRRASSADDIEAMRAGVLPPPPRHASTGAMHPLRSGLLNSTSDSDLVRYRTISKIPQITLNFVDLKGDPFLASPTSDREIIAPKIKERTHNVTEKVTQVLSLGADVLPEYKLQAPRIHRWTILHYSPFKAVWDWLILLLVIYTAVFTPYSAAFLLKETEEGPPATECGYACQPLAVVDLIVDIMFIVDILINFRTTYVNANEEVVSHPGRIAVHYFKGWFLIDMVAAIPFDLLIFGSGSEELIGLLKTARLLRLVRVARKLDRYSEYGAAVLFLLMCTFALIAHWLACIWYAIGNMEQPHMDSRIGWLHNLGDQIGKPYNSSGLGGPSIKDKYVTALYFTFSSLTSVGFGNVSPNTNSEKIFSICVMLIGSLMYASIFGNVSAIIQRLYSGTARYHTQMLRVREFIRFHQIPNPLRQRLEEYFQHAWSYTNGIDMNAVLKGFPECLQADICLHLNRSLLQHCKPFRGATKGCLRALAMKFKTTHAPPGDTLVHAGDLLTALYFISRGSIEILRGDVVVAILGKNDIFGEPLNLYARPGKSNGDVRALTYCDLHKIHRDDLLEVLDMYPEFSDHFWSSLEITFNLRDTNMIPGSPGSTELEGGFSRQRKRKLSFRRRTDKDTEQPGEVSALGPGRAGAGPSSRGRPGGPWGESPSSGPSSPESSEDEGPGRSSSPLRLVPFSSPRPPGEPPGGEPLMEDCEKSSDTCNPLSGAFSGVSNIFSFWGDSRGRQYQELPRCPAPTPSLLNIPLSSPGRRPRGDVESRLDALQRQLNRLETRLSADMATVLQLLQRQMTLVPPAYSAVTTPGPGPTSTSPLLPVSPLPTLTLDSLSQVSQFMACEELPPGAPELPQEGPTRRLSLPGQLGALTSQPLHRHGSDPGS
Cytochrome P450 2C9, sequence (P11712 whole entry): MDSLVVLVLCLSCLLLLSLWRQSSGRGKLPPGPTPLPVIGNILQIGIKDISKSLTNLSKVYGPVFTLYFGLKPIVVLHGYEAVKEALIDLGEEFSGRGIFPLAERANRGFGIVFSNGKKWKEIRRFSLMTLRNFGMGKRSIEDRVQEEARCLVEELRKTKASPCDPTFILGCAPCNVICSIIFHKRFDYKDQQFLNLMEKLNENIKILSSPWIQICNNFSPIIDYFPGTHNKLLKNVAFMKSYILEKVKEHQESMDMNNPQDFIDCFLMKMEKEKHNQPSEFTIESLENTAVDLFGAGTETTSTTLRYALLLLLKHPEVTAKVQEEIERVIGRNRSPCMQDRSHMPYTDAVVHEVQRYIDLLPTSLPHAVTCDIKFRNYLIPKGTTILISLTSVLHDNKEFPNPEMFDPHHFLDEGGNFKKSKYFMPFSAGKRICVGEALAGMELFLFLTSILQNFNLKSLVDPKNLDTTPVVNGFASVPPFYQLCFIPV

Structure (SMILES) | pIC50 [1] | pIC50 [2] | pIC50 [3] | pIC50 [4] | pIC50 [5] | pIC50 [6] | pKi [7] | pKi [8] | clearance [10] [mL/min/kg] | bioavailability [11] [%] | Tmax [12] [h] | half-life [13] [h] | Vd [14] [L/kg] | Kp [15] | pIC50 [9]
Cc1ncoc1-c1nnc(SCCCN2CC3CC3(c3ccc(S(F)(F)(F)(F)F)cc3)C2)n1C (racemic) | < 5.00 | 5.05 | 5.10 | < 5.00 | < 5.00 | < 5.00 | 6.80 |  | 8 | 87 | 2.7 | 4.4 | 2.8 | 2.2 | 
Cc1ncoc1-c1nnc(SCCCN2CC3CC3(c3ccc(S(F)(F)(F)(F)F)cc3)C2)n1C (stereo in doubt; 8) | < 5.00 | 5.05 | < 5.00 | 5.10 | < 5.00 | < 5.00 | 6.80 | 9.00 |  |  |  |  |  |  | 
Cc1ncoc1-c1nnc(SCCCN2CC3CC3(c3ccc(C(F)(F)F)cc3)C2)n1C (racemic) |  |  |  |  |  |  |  |  | 14 |  | 1.5 |  |  | 2.3 | 

More lines, main results first:

pIC50 [1] | pIC50 [2] | pIC50 [3] | pIC50 [4] | pIC50 [5] | pIC50 [6] | pKi [7] | pKi [8] | clearance [10] [mL/min/kg] | bioavailability [11] [%] | Tmax [12] [h] | half-life [13] [h] | Vd [14] [L/kg] | Kp [15] | Structure (SMILES) | pIC50 [9]
5.30 | < 5.00 | < 5.00 | < 5.00 | < 5.00 | < 5.00 |  |  |  |  |  |  |  |  | Cc1ncoc1-c1nnc(SCCCN2CC3CC3(c3cccc(C(F)(F)F)c3)C2)n1C (racemic) | 
5.52 | 5.70 | 5.70 | < 5.00 | < 5.00 | < 5.00 | 7.50 | 9.20 |  |  |  |  |  |  | Cc1ncoc1-c1nnc(SCCCN2CC3CC3(c3cccc(S(F)(F)(F)(F)F)c3)C2)n1C (single isomer, unassigned; 12) | 5.90
5.05 | 5.40 | 5.52 | < 5.00 | < 5.00 | < 5.00 | 6.90 | 8.90 |  |  |  |  |  |  | Cc1ncoc1-c1nnc(SCCCN2CC3CC3(c3cccc(S(F)(F)(F)(F)F)c3)C2)n1C (racemic) | 6.00
5.40 | 5.70 | 5.30 | < 5.00 | < 5.00 | < 5.00 | < 5.50 | 7.80 |  |  |  |  |  |  | Cc1ncoc1-c1nnc(SCCCN2CC3CC3(c3cccc(S(F)(F)(F)(F)F)c3)C2)n1C (single isomer, unassigned; 11) | 5.70
< 5.00 | 5.05 | < 5.00 | 5.15 | < 5.00 | < 5.00 | 6.60 | 7.90 |  |  |  |  |  |  | Cc1ncoc1-c1nnc(SCCCN2CC3CC3(c3ccc(S(F)(F)(F)(F)F)cc3)C2)n1C (single isomer, unassigned) | 
